{"source": "patent US12428406B2", "about": "(PMV Pharmaceuticals, Inc., priority 2019, dated 2025)", "data": [{"molecular_target": "T1, p53 Y220C (Homo sapiens, UniProt P04637, Y220C)", "T1 construct": "The recombinant protein was a truncation mutant containing only amino acids 94-312 of p53; made in house; host or cells: E. coli", "T1 sequence (P04637 94-312, change not shown)": "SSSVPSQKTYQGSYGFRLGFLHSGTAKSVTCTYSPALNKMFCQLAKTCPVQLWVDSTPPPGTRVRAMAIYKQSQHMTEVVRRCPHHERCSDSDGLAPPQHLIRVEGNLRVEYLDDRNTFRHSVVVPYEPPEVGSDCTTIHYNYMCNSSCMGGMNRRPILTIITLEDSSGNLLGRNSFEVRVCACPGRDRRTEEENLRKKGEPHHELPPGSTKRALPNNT", "test": "In vitro DNA binding activity assay (HTRF / TR-FRET): stabilization of p53 Y220C and increase of its DNA binding activity", "assay_type": "biochemical", "conditions": "recombinant His-tagged p53 Y220C DNA binding domain (aa 94-312), biotin-labeled consensus DNA, incubated at 27° C. or 29° C. for 60 min", "how_it_was_run": "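E. coli His-p53 Y220C + biotin consensus DNA; anti-His-APC/SA-Eu TR-FRET. SC150 vs no-compound.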", "values": [{"compound": "COc1cc(C(C)(C)C#N)ccc1NCC#Cc1cc2c(N[C@H]3CC[C@H](N4CC5(CCOCC5)C4)CC3)cccc2n1CC(F)(F)F", "note": "[Compound 301A, 2-(3-methoxy-4-{[3-(4-{[(1R,4R)-4-{7-oxa-2-azaspiro[3.5]nonan-2-yl}cyclohexyl]amino}-1-(2,2,2-trifluoroethyl)-1H-indol-2-yl)prop-2-yn-1-yl]amino}phenyl)-2-methylpropanenitrile]", "SC150 (concentration of the compound required to increase the DNA binding activity by 50%)": "+ (+ = 0 μM ≤ SC150 < 0.05 μM)"}, {"compound": "CS(=O)(=O)c1ccc(NCC#Cc2cc3c(N[C@H]4CC[C@H](N5CC6(CCOCC6)C5)CC4)cccc3n2CC(F)(F)F)c(OCC#N)c1", "note": "[Compound 303A, 2-(5-methanesulfonyl-2-{[3-(4-{[(1R,4R)-4-{7-oxa-2-azaspiro[3.5]nonan-2-yl}cyclohexyl]amino}-1-(2,2,2-trifluoroethyl)-1H-indol-2-yl)prop-2-yn-1-yl]amino}phenoxy)acetonitrile]", "SC150 (concentration of the compound required to increase the DNA binding activity by 50%)": "+ (+ = 0 μM ≤ SC150 < 0.05 μM)"}, {"compound": "CS(=O)(=O)c1ccc(NCC#Cc2cc3c(N[C@H]4CC[C@@H](N5CC6(CCOCC6)C5)CC4)cccc3n2CC(F)(F)F)c(OCC#N)c1", "note": "[Compound 304A, 2-(5-methanesulfonyl-2-{[3-(4-{[(1S,4S)-4-{7-oxa-2-azaspiro[3.5]nonan-2-yl}cyclohexyl]amino}-1-(2,2,2-trifluoroethyl)-1H-indol-2-yl)prop-2-yn-1-yl]amino}phenoxy)acetonitrile]", "SC150 (concentration of the compound required to increase the DNA binding activity by 50%)": "+ (+ = 0 μM ≤ SC150 < 0.05 μM)"}, {"compound": "COc1cc(S(=O)(=O)NC(C)=O)ccc1NCC#Cc1cc2c(N[C@H]3CC[C@H](N4CC5(CCOCC5)C4)CC3)cccc2n1CC(F)(F)F", "note": "[Compound 305A, N-((4-((3-(4-(((1R,4R)-4-(7-oxa-2-azaspiro[3.5]nonan-2-yl)cyclohexyl)amino)-1-(2,2,2-trifluoroethyl)-1H-indol-2-yl)prop-2-yn-1-yl)amino)-3-methoxyphenyl)sulfonyl)acetamide]", "SC150 (concentration of the compound required to increase the DNA binding activity by 50%)": "+ (+ = 0 μM ≤ SC150 < 0.05 μM)"}, {"compound": "COc1cc(S(=O)(=O)NC(=O)CN)ccc1NCC#Cc1cc2c(N[C@H]3CC[C@H](N4CC5(CCOCC5)C4)CC3)cccc2n1CC(F)(F)F", "note": "[Compound 307A, N-((4-((3-(4-(((1R,4R)-4-(7-oxa-2-azaspiro[3.5]nonan-2-yl)cyclohexyl)amino)-1-(2,2,2-trifluoroethyl)-1H-indol-2-yl)prop-2-yn-1-yl)amino)-3-methoxyphenyl)sulfonyl)-2-aminoacetamide]", "SC150 (concentration of the compound required to increase the DNA binding activity by 50%)": "+ (+ = 0 μM ≤ SC150 < 0.05 μM)"}, {"compound": "COC(=O)COc1cc(S(C)(=O)=O)ccc1NCC#Cc1cc2c(N[C@H]3CC[C@H](N4CC5(CCOCC5)C4)CC3)cccc2n1CC(F)(F)F", "note": "[Compound 309A, methyl 2-(2-((3-(4-((4-(7-oxa-2-azaspiro[3.5]nonan-2-yl)cyclohexyl)amino)-1-(2,2,2-trifluoroethyl)-1H-indol-2-yl)prop-2-yn-1-yl)amino)-5-(methylsulfonyl)phenoxy)acetate]", "SC150 (concentration of the compound required to increase the DNA binding activity by 50%)": "+ (+ = 0 μM ≤ SC150 < 0.05 μM)"}, {"compound": "CS(=O)(=O)c1ccc(NCC#Cc2cc3c(N[C@H]4CC[C@H](N5CC6(CCOCC6)C5)CC4)cccc3n2CC(F)(F)F)c(OCC(=O)O)c1", "note": "[Compound 311A, 2-(2-((3-(4-(((1R,4R)-4-(7-oxa-2-azaspiro[3.5]nonan-2-yl)cyclohexyl)amino)-1-(2,2,2-trifluoroethyl)-1H-indol-2-yl)prop-2-yn-1-yl)amino)-5-(methylsulfonyl)phenoxy)acetic acid]", "SC150 (concentration of the compound required to increase the DNA binding activity by 50%)": "++ (++ = 0.05 μM ≤ SC150 < 0.1 μM)"}, {"compound": "COc1cc(S(C)(=O)=O)ccc1NCC#Cc1cc2c(N[C@H]3CC[C@H](N4CCC5(CC4)COC5)CC3)cccc2n1CC(F)(F)F", "note": "[Compound 313A, 2-{3-[(4-methane-sulfonyl-2-methoxy-phenyl)amino]prop-1-yn-1-yl}-N-[(1R,4R)-4-{2-oxa-7-azaspiro[3.5]nonan-7-yl}cyclohexyl]-1-(2,2,2-trifluoroethyl)-1H-indol-4-amine]", "SC150 (concentration of the compound required to increase the DNA binding activity by 50%)": "+ (+ = 0 μM ≤ SC150 < 0.05 μM)"}, {"compound": "CCS(=O)(=O)c1ccc(NCC#Cc2cc3c(N[C@H]4CC[C@H](N5CC6(CCOCC6)C5)CC4)cccc3n2CC(F)(F)F)c(OC)c1", "note": "[Compound 314A, 2-(3-{[4-(ethanesulfonyl)-2-methoxyphenyl]amino}prop-1-yn-1-yl)-N-[(1R,4R)-4-{7-oxa-2-azaspiro[3.5]nonan-2-yl}cyclohexyl]-1-(2,2,2-trifluoroethyl)-1H-indol-4-amine]", "SC150 (concentration of the compound required to increase the DNA binding activity by 50%)": "+ (+ = 0 μM ≤ SC150 < 0.05 μM)"}, {"compound": "CCS(=O)(=O)c1ccc(NCC#Cc2cc3c(N[C@H]4CC[C@@H](N5CC6(CCOCC6)C5)CC4)cccc3n2CC(F)(F)F)c(OC)c1", "note": "[Compound 315A, 2-(3-{[4-(ethanesulfonyl)-2-methoxyphenyl]amino}prop-1-yn-1-yl)-N-[(1S,4S)-4-{7-oxa-2-azaspiro[3.5]nonan-2-yl}cyclohexyl]-1-(2,2,2-trifluoroethyl)-1H-indol-4-amine]", "SC150 (concentration of the compound required to increase the DNA binding activity by 50%)": "+ (+ = 0 μM ≤ SC150 < 0.05 μM)"}, {"compound": "NS(=O)(=O)c1ccc(NCC#Cc2cc3c(N[C@H]4CC[C@H](N5CC6(CCOCC6)C5)CC4)cccc3n2CC(F)(F)F)c(OCF)c1", "note": "[Compound 316A, 3-(fluoromethoxy)-4-{[3-(4-{[(1R,4R)-4-{7-oxa-2-azaspiro[3.5]nonan-2-yl}cyclo-hexyl]amino}-1-(2,2,2-trifluoroethyl)-1H-indol-2-yl)prop-2-yn-1-yl]amino}benzene-1-sulfonamide]", "SC150 (concentration of the compound required to increase the DNA binding activity by 50%)": "+ (+ = 0 μM ≤ SC150 < 0.05 μM)"}, {"compound": "CNC(=O)c1ccc(NCC#Cc2cc3c(N[C@H]4CC[C@H](N5CC6(CCCOC6)C5)CC4)cccc3n2CC(F)(F)F)c(OC)c1", "note": "[Compound 318A, 3-methoxy-N-methyl-4-{[3-(4-{[(1R,4R)-4-{6-oxa-2-azaspiro[3.5]nonan-2-yl}cyclohexyl]amino}-1-(2,2,2-trifluoroethyl)-1H-indol-2-yl)prop-2-yn-1-yl]amino} benzamide]", "SC150 (concentration of the compound required to increase the DNA binding activity by 50%)": "+ (+ = 0 μM ≤ SC150 < 0.05 μM)"}, {"compound": "COc1cc(S(N)(=O)=O)ccc1NCC#Cc1cc2c(N[C@H]3CC[C@H](N4CC5(CCCOC5)C4)CC3)cccc2n1CC(F)(F)F", "note": "[Compound 320A, 3-methoxy-4-{[3-(4-{[(1R,4R)-4-{6-oxa-2-azaspiro[3.5]nonan-2-yl}cyclohexyl]amino}-1-(2,2,2-trifluoro-ethyl)-1H-indol-2-yl)prop-2-yn-1-yl]amino} benzene-1-sulfonamide]", "SC150 (concentration of the compound required to increase the DNA binding activity by 50%)": "+ (+ = 0 μM ≤ SC150 < 0.05 μM)"}, {"compound": "COc1cc(S(C)(=O)=O)ccc1NCC#Cc1cc2c(N[C@H]3CC[C@H](N4CC5(CCCOC5)C4)CC3)cccc2n1CC(F)(F)F", "note": "[Compound 322A, 2-{3-[(4-methane-sulfonyl-2-methoxy-phenyl)amino]prop-1-yn-1-yl}-N-[(1R,4R)-4-{6-oxa-2-azaspiro[3.5]nonan-2-yl}cyclohexyl]-1-(2,2,2-trifluoroethyl)-1H-indol-4-amine]", "SC150 (concentration of the compound required to increase the DNA binding activity by 50%)": "+ (+ = 0 μM ≤ SC150 < 0.05 μM)"}, {"compound": "CS(=O)(=O)c1ccc(NCC#Cc2cc3c(N[C@H]4CC[C@H](N5CC6(CCOCC6)C5)CC4)cccc3n2CC(F)(F)F)c(OCF)c1", "note": "[Compound 324A, N-((1R,4R)-4-(7-oxa-2-azaspiro[3.5]nonan-2-yl)cyclohexyl)-2-(3-((2-(fluoromethoxy)-4-(methylsulfonyl)phenyl)amino)prop-1-yn-1-yl)-1-(2,2,2-trifluoroethyl)-1H-indol-4-amine]", "SC150 (concentration of the compound required to increase the DNA binding activity by 50%)": "+ (+ = 0 μM ≤ SC150 < 0.05 μM)"}, {"compound": "CNS(=O)(=O)c1ccc(NCC#Cc2cc3c(N[C@H]4CC[C@H](N5CC6(CCOCC6)C5)CC4)cccc3n2CC(F)(F)F)c(OC)c1", "note": "[Compound 327A, 4-((3-(4-(((1R,4R)-4-(7-oxa-2-azaspiro[3.5]nonan-2-yl)cyclohexyl)amino)-1-(2,2,2-trifluoroethyl)-1H-indol-2-yl)prop-2-yn-1-yl)amino)-3-methoxy-N-methyl-benzenesulfonamide]", "SC150 (concentration of the compound required to increase the DNA binding activity by 50%)": "+ (+ = 0 μM ≤ SC150 < 0.05 μM)"}, {"compound": "CCOc1cc(S(C)(=O)=O)ccc1NCC#Cc1cc2c(N[C@H]3CC[C@H](N4CC5(CCOCC5)C4)CC3)cccc2n1CC(F)(F)F", "note": "[Compound 329A, N-((1R,4R)-4-(7-oxa-2-azaspiro[3.5]nonan-2-yl)cyclohexyl)-2-(3-((2-ethoxy-4-(methylsulfonyl)phenyl)amino)prop-1-yn-1-yl)-1-(2,2,2-trifluoroethyl)-1H-indol-4-amine]", "SC150 (concentration of the compound required to increase the DNA binding activity by 50%)": "+ (+ = 0 μM ≤ SC150 < 0.05 μM)"}, {"compound": "COc1cc(C(N)=O)ccc1NCC#Cc1cc2c(N[C@H]3CC[C@H](N4CC5(CCOCC5)C4)CC3)cccc2n1CC(F)(F)F", "note": "[Compound 331A, 3-methoxy-4-{[3-(4-{[(1R,4R)-4-{7-oxa-2-azaspiro[3.5]nonan-2-yl}cyclohexyl]amino}-1-(2,2,2-trifluoroethyl)-1H-indol-2-yl)prop-2-yn-1-yl]amino}benzamide]", "SC150 (concentration of the compound required to increase the DNA binding activity by 50%)": "+ (+ = 0 μM ≤ SC150 < 0.05 μM)"}, {"compound": "COc1cc(C(N)=O)ccc1NCC#Cc1cc2c(N[C@H]3CC[C@H](N4CC5(CCCOC5)C4)CC3)cccc2n1CC(F)(F)F", "note": "[Compound 333A, 3-methoxy-4-{[3-(4-{[(1R,4R)-4-{6-oxa-2-azaspiro[3.5]nonan-2-yl}cyclohexyl]amino}-1-(2,2,2-trifluoroethyl)-1H-indol-2-yl)prop-2-yn-1-yl]amino}benzamide]", "SC150 (concentration of the compound required to increase the DNA binding activity by 50%)": "+ (+ = 0 μM ≤ SC150 < 0.05 μM)"}, {"compound": "CNC(=O)c1cc(OC)c(NCC#Cc2cc3c(N[C@H]4CC[C@H](N5CC6(CCOCC6)C5)CC4)cccc3n2CC(F)(F)F)cc1F", "note": "[Compound 335A, 2-fluoro-5-methoxy-N-methyl-4-{[3-(4-{[(1R,4R)-4-{7-oxa-2-azaspiro[3.5]nonan-2-yl}cyclohexyl]amino}-1-(2,2,2-trifluoroethyl)-1H-indol-2-yl)prop-2-yn-1-yl]amino}benzamide]", "SC150 (concentration of the compound required to increase the DNA binding activity by 50%)": "+ (+ = 0 μM ≤ SC150 < 0.05 μM)"}]}]}
